This is an account of results in US20240254108A1, “COMPOUND COMPRISING PYRROLIDINE AS LINKER, AND PHARMACEUTICAL COMPOSITION COMPRISING SAME” (BEAD TECH INC., priority 2021, published 2024).

Structures are written as SMILES.

The assay has as its system factors (genes) causing atopic dermatitis. The experiment in a line: Expression of atopic dermatitis factors (genes) in skin of DNFB-treated mice, real time PCR (Experimental Example 4). It counts as in vivo. The note with it: RNA from skin of DNFB-treated female BALB/C mice, compound 100 μM on skin once a day to day 16; FIGS. 9 to 12. The procedure: For real time PCR, RNA was extracted using RNAiso Plus (TAKARA, Japan) and cDNA was synthesized using a cDNA synthesis kit (TAKARA, JAPAN). The polymerization reaction was carried out using the synthesized cDNA and a Sybr green kit (Enzynomics, Korea). […]
In general terms: Quantitative PCR measures a nucleic acid by following its amplification.

With `NC(=O)[C@H](Cc1c[nH]cn1)NC(=O)[C@H]1CCCN1C(=O)c1cccc(O)c1O` [Example 18], the “expression of the factors (genes) causing atopic dermatitis” value is “reduce the expression of the factors (genes)”.
